Source: ChEMBL document CHEMBL3045838, “Synthesis, antimicrobial and antioxidant activities of 2-[1-{3,5-diaryl-4,5-dihydro-1H-pyrazolenyl}]-4-(4-nitrophenyl)-[1,3]-thiazoles” (2013)
≈ marks a conversion by molar mass, not a printed value.

Legend:
Assay type in all cases: functional
Klebsiella pneumoniae [1] = assay: Antibacterial activity against Klebsiella pneumoniae assessed as growth inhibition by serial plate dilution method
Escherichia coli [2] = assay: Antibacterial activity against Escherichia coli ATCC 25922 assessed as growth inhibition at 1.56 to 25 ug/mL
Aspergillus fumigatus [3] = assay: Antifungal activity against Aspergillus fumigatus NCIM 902 assessed as growth inhibition by serial plate dilution method
Talaromyces marneffei [4] = assay: Antifungal activity against Talaromyces marneffei assessed as growth inhibition by serial plate dilution method
Klebsiella pneumoniae [5] = assay: Antibacterial activity against Klebsiella pneumoniae assessed as growth inhibition at 1.56 to 25 ug/mL
Talaromyces marneffei [6] = assay: Antifungal activity against Talaromyces marneffei assessed as growth inhibition at 1.56 to 25 ug/mL
[7] = tested on: Trichophyton mentagrophytes; assay: Antifungal activity against Trichophyton mentagrophytes assessed as growth inhibition by serial plate dilution method
Staphylococcus aureus [8] = assay: Antibacterial activity against Staphylococcus aureus ATCC 25923 assessed as growth inhibition by serial plate dilution method
[9] = tested on: Trichophyton mentagrophytes; assay: Antifungal activity against Trichophyton mentagrophytes assessed as growth inhibition at 1.56 to 25 ug/mL
Pseudomonas aeruginosa [10] = assay: Antibacterial activity against Pseudomonas aeruginosa ATCC 27853 assessed as growth inhibition by serial plate dilution method
Aspergillus fumigatus [11] = assay: Antifungal activity against Aspergillus fumigatus NCIM 902 assessed as growth inhibition at 1.56 to 25 ug/mL
Aspergillus flavus [12] = assay: Antifungal activity against Aspergillus flavus NCIM 524 assessed as growth inhibition at 1.56 to 25 ug/mL
Pseudomonas aeruginosa [13] = assay: Antibacterial activity against Pseudomonas aeruginosa ATCC 27853 assessed as growth inhibition at 1.56 to 25 ug/mL
Aspergillus flavus [14] = assay: Antifungal activity against Aspergillus flavus NCIM 524 assessed as growth inhibition by serial plate dilution method
Staphylococcus aureus [15] = assay: Antibacterial activity against Staphylococcus aureus ATCC 25923 assessed as growth inhibition at 1.56 to 25 ug/mL
Escherichia coli [16] = assay: microbe, parasite or virus in culture; settings: ATCC 25922
Description: Antibacterial activity against Escherichia coli ATCC 25922 assessed as growth inhibition by serial plate dilution method

[17] = tested on: Radical scavenging activity; assay: Antioxidant activity assessed as inhibition of DPPH radical generation at 4000 ug/mL after 15 min by UV-Vis spectrophotometric analysis relative to control; settings: at 4000 µg/mL

MIC (Klebsiella pneumoniae [1]) [µg/mL]	MIC (Aspergillus fumigatus [3]) [µg/mL]	MIC (Talaromyces marneffei [4]) [µg/mL]	MIC [7] [µg/mL]	MIC (Staphylococcus aureus [8]) [µg/mL]	MIC (Pseudomonas aeruginosa [10]) [µg/mL]	MIC (Aspergillus flavus [14]) [µg/mL]	MIC (Escherichia coli [16]) [µg/mL]	SMILES	diameter of the inhibition zone (DIZ) (Escherichia coli [2]) [mm]	diameter of the inhibition zone (DIZ) (Klebsiella pneumoniae [5]) [mm]	diameter of the inhibition zone (DIZ) (Talaromyces marneffei [6]) [mm]	diameter of the inhibition zone (DIZ) [9] [mm]	diameter of the inhibition zone (DIZ) (Aspergillus fumigatus [11]) [mm]	diameter of the inhibition zone (DIZ) (Aspergillus flavus [12]) [mm]	diameter of the inhibition zone (DIZ) (Pseudomonas aeruginosa [13]) [mm]	diameter of the inhibition zone (DIZ) (Staphylococcus aureus [15]) [mm]	inhibition [17] [%]
6.25 (≈ 9.53 µM)	6.25 (≈ 9.53 µM)	6.25 (≈ 9.53 µM)	6.25 (≈ 9.53 µM)	6.25 (≈ 9.53 µM)	6.25 (≈ 9.53 µM)	6.25 (≈ 9.53 µM)	6.25 (≈ 9.53 µM)	COc1ccc(C2=NN(c3nc(-c4ccc([N+](=O)[O-])cc4)cs3)C(c3ccc(-c4cc(Cl)c(Cl)cc4Cl)o3)C2)cc1OC (stereo unspecified)	16	16	16	16	16	16	16	16	57
–	6.25 (≈ 8.86 µM)	6.25 (≈ 8.86 µM)	6.25 (≈ 8.86 µM)	–	–	1.56 (≈ 2.21 µM)	–	CCC(C)n1ncn(-c2ccc(N3CCN(c4ccc(OCC5COC(Cn6cncn6)(c6ccc(Cl)cc6Cl)O5)cc4)CC3)cc2)c1=O (stereo unspecified) [ITRACONAZOLE]	–	–	25	23	30	22	–	–	–
25 (≈ 48.3 µM)	25 (≈ 48.3 µM)	25 (≈ 48.3 µM)	25 (≈ 48.3 µM)	25 (≈ 48.3 µM)	25 (≈ 48.3 µM)	25 (≈ 48.3 µM)	25 (≈ 48.3 µM)	CSc1ccc(C2CC(c3ccc([N+](=O)[O-])cc3)=NN2c2nc(-c3ccc([N+](=O)[O-])cc3)cs2)cc1 (stereo unspecified)	< 10	< 10	< 10	< 10	< 10	< 10	< 10	< 10	75
12.5 (≈ 19.8 µM)	12.5 (≈ 19.8 µM)	12.5 (≈ 19.8 µM)	12.5 (≈ 19.8 µM)	12.5 (≈ 19.8 µM)	12.5 (≈ 19.8 µM)	12.5 (≈ 19.8 µM)	12.5 (≈ 19.8 µM)	COc1ccc(C2=NN(c3nc(-c4ccc([N+](=O)[O-])cc4)cs3)C(c3ccc(-c4ccc(Br)cc4)o3)C2)cc1OC (stereo unspecified)	11	11	11	11	11	11	11	11	69
6.25 (≈ 10.5 µM)	6.25 (≈ 10.5 µM)	6.25 (≈ 10.5 µM)	6.25 (≈ 10.5 µM)	6.25 (≈ 10.5 µM)	6.25 (≈ 10.5 µM)	6.25 (≈ 10.5 µM)	6.25 (≈ 10.5 µM)	COc1ccc(C2=NN(c3nc(-c4ccc([N+](=O)[O-])cc4)cs3)C(c3ccc(-c4ccc([N+](=O)[O-])cc4)o3)C2)cc1OC (stereo unspecified)	16	16	16	16	16	16	16	16	62
6.25 (≈ 10.3 µM)	6.25 (≈ 10.3 µM)	6.25 (≈ 10.3 µM)	6.25 (≈ 10.3 µM)	6.25 (≈ 10.3 µM)	6.25 (≈ 10.3 µM)	6.25 (≈ 10.3 µM)	6.25 (≈ 10.3 µM)	COc1ccc(C2=NN(c3nc(-c4ccc([N+](=O)[O-])cc4)cs3)C(c3ccc(-c4ccc(F)c(Cl)c4)o3)C2)cc1OC (stereo unspecified)	16	16	16	16	16	16	16	16	74

Further lines, the compound ahead of its results:

SMILES	MIC (Klebsiella pneumoniae [1]) [µg/mL]	MIC (Aspergillus fumigatus [3]) [µg/mL]	MIC (Talaromyces marneffei [4]) [µg/mL]	MIC [7] [µg/mL]	MIC (Staphylococcus aureus [8]) [µg/mL]	MIC (Pseudomonas aeruginosa [10]) [µg/mL]	MIC (Aspergillus flavus [14]) [µg/mL]	MIC (Escherichia coli [16]) [µg/mL]	diameter of the inhibition zone (DIZ) (Escherichia coli [2]) [mm]	diameter of the inhibition zone (DIZ) (Klebsiella pneumoniae [5]) [mm]	diameter of the inhibition zone (DIZ) (Talaromyces marneffei [6]) [mm]	diameter of the inhibition zone (DIZ) [9] [mm]	diameter of the inhibition zone (DIZ) (Aspergillus fumigatus [11]) [mm]	diameter of the inhibition zone (DIZ) (Aspergillus flavus [12]) [mm]	diameter of the inhibition zone (DIZ) (Pseudomonas aeruginosa [13]) [mm]	diameter of the inhibition zone (DIZ) (Staphylococcus aureus [15]) [mm]	inhibition [17] [%]
COc1ccc(-c2ccc(C3CC(c4ccc(OC)c(OC)c4)=NN3c3nc(-c4ccc([N+](=O)[O-])cc4)cs3)o2)c([N+](=O)[O-])c1 (stereo unspecified)	12.5 (≈ 19.9 µM)	12.5 (≈ 19.9 µM)	12.5 (≈ 19.9 µM)	12.5 (≈ 19.9 µM)	12.5 (≈ 19.9 µM)	12.5 (≈ 19.9 µM)	12.5 (≈ 19.9 µM)	12.5 (≈ 19.9 µM)	11	11	11	11	11	11	11	11	86
O=[N+]([O-])c1ccc(-c2csc(N3N=C(c4ccccc4)CC3c3ccc(-c4ccc(Cl)cc4)o3)n2)cc1 (stereo unspecified)	12.5 (≈ 23.7 µM)	12.5 (≈ 23.7 µM)	12.5 (≈ 23.7 µM)	12.5 (≈ 23.7 µM)	12.5 (≈ 23.7 µM)	12.5 (≈ 23.7 µM)	12.5 (≈ 23.7 µM)	12.5 (≈ 23.7 µM)	11	11	11	11	11	11	11	11	45
COc1ccc(C2=NN(c3nc(-c4ccc([N+](=O)[O-])cc4)cs3)C(c3ccc(-c4c(C)cccc4[N+](=O)[O-])o3)C2)cc1OC (stereo unspecified)	12.5 (≈ 20.4 µM)	12.5 (≈ 20.4 µM)	12.5 (≈ 20.4 µM)	12.5 (≈ 20.4 µM)	12.5 (≈ 20.4 µM)	12.5 (≈ 20.4 µM)	12.5 (≈ 20.4 µM)	12.5 (≈ 20.4 µM)	11	11	11	11	11	11	11	11	66
COc1ccc(C2=NN(c3nc(-c4ccc([N+](=O)[O-])cc4)cs3)C(c3ccc(-c4ccc([N+](=O)[O-])cc4C)o3)C2)cc1OC (stereo unspecified)	6.25 (≈ 10.2 µM)	6.25 (≈ 10.2 µM)	6.25 (≈ 10.2 µM)	6.25 (≈ 10.2 µM)	6.25 (≈ 10.2 µM)	6.25 (≈ 10.2 µM)	6.25 (≈ 10.2 µM)	6.25 (≈ 10.2 µM)	16	16	16	16	16	16	16	16	14
COc1ccc(C2=NN(c3nc(-c4ccc([N+](=O)[O-])cc4)cs3)C(c3ccc(SC)cc3)C2)cc1 (stereo unspecified)	25 (≈ 49.7 µM)	25 (≈ 49.7 µM)	25 (≈ 49.7 µM)	25 (≈ 49.7 µM)	25 (≈ 49.7 µM)	25 (≈ 49.7 µM)	25 (≈ 49.7 µM)	25 (≈ 49.7 µM)	< 10	< 10	< 10	< 10	< 10	< 10	< 10	< 10	79
COc1ccc(C2=NN(c3nc(-c4ccc([N+](=O)[O-])cc4)cs3)C(c3ccc(-c4ccc(Cl)cc4Cl)o3)C2)cc1OC (stereo unspecified)	6.25 (≈ 10.1 µM)	6.25 (≈ 10.1 µM)	6.25 (≈ 10.1 µM)	6.25 (≈ 10.1 µM)	6.25 (≈ 10.1 µM)	6.25 (≈ 10.1 µM)	6.25 (≈ 10.1 µM)	6.25 (≈ 10.1 µM)	16	16	16	16	16	16	16	16	86
COc1ccc(C2=NN(c3nc(-c4ccc([N+](=O)[O-])cc4)cs3)C(c3ccc(-c4ccc(Cl)cc4[N+](=O)[O-])o3)C2)cc1OC (stereo unspecified)	12.5 (≈ 19.8 µM)	12.5 (≈ 19.8 µM)	12.5 (≈ 19.8 µM)	12.5 (≈ 19.8 µM)	12.5 (≈ 19.8 µM)	12.5 (≈ 19.8 µM)	12.5 (≈ 19.8 µM)	12.5 (≈ 19.8 µM)	11	11	11	11	11	11	11	11	82
CC1(C)S[C@@H]2[C@H](NC(=O)[C@H](N)c3ccccc3)C(=O)N2[C@H]1C(=O)O [AMPICILLIN]	6.25 (≈ 17.9 µM)	–	–	–	1.56 (≈ 4.46 µM)	6.25 (≈ 17.9 µM)	–	6.25 (≈ 17.9 µM)	30	23	–	–	–	–	25	22	–
O=C1O[C@H]([C@@H](O)CO)C(O)=C1O	–	–	–	–	–	–	–	–	–	–	–	–	–	–	–	–	96
